# Assay results as given in patent US8138178B2, “Cyclic inhibitors of 11beta-hydroxysteroid dehydrogenase 1” (Vitae Pharmaceuticals, Inc., priority 2008, dated 2012).
# How the values were obtained:
# [1] = biological target: human recombinant cytochrome P450 3A4 (Homo sapiens, UniProt P08684); assay: Biological Test Example 6: CYP3A4 inhibition; type: in vitro ADME
# [2] = biological target: human recombinant cytochrome P450 2C9 (Homo sapiens, UniProt P11712); assay: biochemical
# [3] = Biological Test Example 5: fraction unbound in human plasma (equilibrium dialysis); type: in vitro ADME
# [4] = biological target: human recombinant cytochrome P450 2C19 (Homo sapiens, UniProt P33261); assay: Biological Test Example 8: CYP2C19 inhibition; type: in vitro ADME
# human recombinant cytochrome P450 2C19, sequence (P33261 whole entry): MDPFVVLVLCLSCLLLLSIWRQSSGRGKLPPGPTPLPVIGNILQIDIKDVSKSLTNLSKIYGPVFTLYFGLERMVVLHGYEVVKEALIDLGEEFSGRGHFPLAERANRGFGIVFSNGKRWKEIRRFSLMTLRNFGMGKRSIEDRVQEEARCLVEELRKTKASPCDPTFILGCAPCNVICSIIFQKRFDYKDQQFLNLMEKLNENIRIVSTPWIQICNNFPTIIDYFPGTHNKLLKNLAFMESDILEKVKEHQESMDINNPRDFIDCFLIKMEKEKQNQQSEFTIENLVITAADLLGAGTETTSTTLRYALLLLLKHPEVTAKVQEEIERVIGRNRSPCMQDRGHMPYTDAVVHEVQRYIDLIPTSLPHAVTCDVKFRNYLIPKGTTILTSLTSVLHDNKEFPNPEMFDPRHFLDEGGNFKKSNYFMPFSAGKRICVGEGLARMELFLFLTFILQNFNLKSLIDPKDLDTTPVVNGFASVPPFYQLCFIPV
# human recombinant cytochrome P450 3A4, sequence (P08684 whole entry): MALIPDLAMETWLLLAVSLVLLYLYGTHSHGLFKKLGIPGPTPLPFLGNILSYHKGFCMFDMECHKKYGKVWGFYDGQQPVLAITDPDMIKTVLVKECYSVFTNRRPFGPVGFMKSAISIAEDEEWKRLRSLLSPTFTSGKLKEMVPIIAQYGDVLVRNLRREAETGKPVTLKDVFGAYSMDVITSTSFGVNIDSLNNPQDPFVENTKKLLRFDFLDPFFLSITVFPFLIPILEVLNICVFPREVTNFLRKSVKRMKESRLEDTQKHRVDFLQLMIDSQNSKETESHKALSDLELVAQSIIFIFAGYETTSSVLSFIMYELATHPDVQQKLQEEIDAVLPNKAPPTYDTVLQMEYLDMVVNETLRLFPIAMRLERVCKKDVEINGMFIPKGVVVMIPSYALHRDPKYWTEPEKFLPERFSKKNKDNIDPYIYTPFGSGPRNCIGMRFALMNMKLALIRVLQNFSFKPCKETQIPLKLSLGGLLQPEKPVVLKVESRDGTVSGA
# human recombinant cytochrome P450 2C9, sequence (P11712 whole entry): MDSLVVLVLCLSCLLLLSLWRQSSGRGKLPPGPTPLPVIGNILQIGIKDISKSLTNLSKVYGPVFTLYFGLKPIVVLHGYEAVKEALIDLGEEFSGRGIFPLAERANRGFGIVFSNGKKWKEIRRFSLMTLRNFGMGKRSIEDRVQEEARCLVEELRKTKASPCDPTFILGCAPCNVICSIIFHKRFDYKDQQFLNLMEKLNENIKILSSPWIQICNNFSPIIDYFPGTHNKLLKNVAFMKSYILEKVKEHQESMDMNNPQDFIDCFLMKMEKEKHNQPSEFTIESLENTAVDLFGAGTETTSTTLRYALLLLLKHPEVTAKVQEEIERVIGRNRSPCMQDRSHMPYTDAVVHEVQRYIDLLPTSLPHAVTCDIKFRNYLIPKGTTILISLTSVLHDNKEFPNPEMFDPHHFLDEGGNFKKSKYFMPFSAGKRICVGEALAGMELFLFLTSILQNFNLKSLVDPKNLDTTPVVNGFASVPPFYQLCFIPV
compound,measurement,setting,value
"C[C@@H](c1ccc(-c2ccc(=O)n(C)c2)cc1)N1CC[C@](CC(C)(C)O)(c2ccccc2F)OC1=O [Example 23, (S)-6-(2-fluorophenyl)-6-(2-hydroxy-2-methylpropyl)-3-((S)-1-(4-(1-methyl-6-oxo-1,6-dihydropyridin-3-yl)phenyl)ethyl)-1,3-oxazinan-2-one]",IC50,[1],> 50 µM
same,IC50,[2],> 50 µM
"C[C@@H](c1ccc(-c2ccc(=O)n(C)c2)cc1)N1CC[C@](CCCO)(c2ccccc2)OC1=O [Example 30, (R)-6-(3-hydroxypropyl)-3-((S)-1-(4-(1-methyl-6-oxo-1,6-dihydropyridin-3-yl)phenyl)ethyl)-6-phenyl-1,3-oxazinan-2-one]",fraction unbound,[3],0.139
"C[C@@H](c1ccc(-c2ccc(=O)n(C)c2)cc1)N1CC[C@](CC(C)(C)O)(c2ccc(F)cc2)OC1=O [Example 32, (S)-6-(4-fluorophenyl)-6-(2-hydroxy-2-methylpropyl)-3-((S)-1-(4-(1-methyl-6-oxo-1,6-dihydropyridin-3-yl)phenyl)ethyl)-1,3-oxazinan-2-one]",fraction unbound,[3],0.123
"C[C@@H](c1ccc(-c2ccc(=O)n(C)c2)cc1)N1CC[C@](CC(C)(C)O)(c2ccccc2)OC1=O [Example 37, (S)-6-(2-hydroxy-2-methylpropyl)-3-((S)-1-(4-(1-methyl-6-oxo-1,6-dihydropyridin-3-yl)phenyl)ethyl)-6-phenyl-1,3-oxazinan-2-one]",fraction unbound,[3],0.146
"C[C@@H](c1ccc(-c2ccn(C)c(=O)c2)cc1)N1CC[C@](CC(C)(C)O)(c2ccccc2)OC1=O [Example 48, (S)-6-(2-hydroxy-2-methylpropyl)-3-((S)-1-(4-(1-methyl-2-oxo-1,2-dihydropyridin-4-yl)phenyl)ethyl)-6-phenyl-1,3-oxazinan-2-one]",fraction unbound,[3],0.087
"CC[C@@H](c1ccc(-c2ccc(=O)n(CC)c2)cc1)N1CC[C@](CC(C)(C)O)(c2ccccc2)OC1=O [Example 52, (S)-3-((S)-1-(4-(1-ethyl-6-oxo-1,6-dihydropyridin-3-yl)phenyl)propyl)-6-(2-hydroxy-2-methylpropyl)-6-phenyl-1,3-oxazinan-2-one]",IC50,[1],48 µM
same,IC50,[4],8 µM
same,fraction unbound,[3],0.09
"CCn1cc(-c2ccc([C@H](C)N3CC[C@](CC(C)(C)O)(c4ccccc4)OC3=O)cc2)ccc1=O [Example 53, (S)-3-((S)-1-(4-(1-ethyl-6-oxo-1,6-dihydropyridin-3-yl)phenyl)ethyl)-6-(2-hydroxy-2-methylpropyl)-6-phenyl-1,3-oxazinan-2-one]",fraction unbound,[3],0.128
"CC[C@@H](c1ccc(-c2ccc(=O)n(C)c2)cc1)N1CC[C@](CC(C)(C)O)(c2ccccc2)OC1=O [Example 54, (S)-6-(2-hydroxy-2-methylpropyl)-3-((S)-1-(4-(1-methyl-6-oxo-1,6-dihydropyridin-3-yl)phenyl)propyl)-6-phenyl-1,3-oxazinan-2-one]",fraction unbound,[3],0.091
"CC[C@@H](c1ccc(-c2ccn(C)c(=O)c2)cc1)N1CC[C@](CC(C)(C)O)(c2ccccc2)OC1=O [Example 55, (S)-6-(2-hydroxy-2-methylpropyl)-3-((S)-1-(4-(1-methyl-2-oxo-1,2-dihydropyridin-4-yl)phenyl)propyl)-6-phenyl-1,3-oxazinan-2-one]",fraction unbound,[3],0.071
"C[C@@H](c1ccc(-c2ccn(CC(F)(F)F)c(=O)c2)cc1)N1CC[C@](CC(C)(C)O)(c2ccccc2)OC1=O [Example 66, (S)-6-(2-hydroxy-2-methylpropyl)-3-((S)-1-(4-(2-oxo-1-(2,2,2-trifluoroethyl)-1,2-dihydropyridin-4-yl)phenyl)ethyl)-6-phenyl-1,3-oxazinan-2-one]",fraction unbound,[3],0.055
"C[C@@H](c1ccc(-c2ccn(C3CC3)c(=O)c2)cc1)N1CC[C@](CC(C)(C)O)(c2ccccc2)OC1=O [Example 75, 3-{(S)-1-[4-(1-Cyclopropyl-2-oxo-1,2-dihydro-pyridin-4-yl)-phenyl]-ethyl}-(S)-6-(2-hydroxy-2-methyl-propyl)-6-phenyl-[1,3]oxazinan-2-one]",fraction unbound,[3],0.156
"COC[C@]1(c2ccccc2)CCN([C@@H](C)c2ccc(-c3ccc(=O)n(C)c3)cc2)C(=O)O1 [Example 77, (R)-6-Methoxymethyl-3-{(S)-1-[4-(1-methyl-6-oxo-1,6-dihydro-pyridin-3-yl)-phenyl]-ethyl}-6-phenyl-[1,3]oxazinan-2-one]",IC50,[1],> 50 µM
same,IC50,[2],> 50 µM
"(S)-3-((S)-1-(4-(1-(difluoromethyl)-2-oxo-1,2-dihydropyridin-4-yl)phenyl)ethyl)-6-(2-hydroxy-2-methylpropyl)-6-phenyl-1,3-oxazinan-2-one [Example 5]",IC50,[1],29 µM
